Molecules are shown by their SMILES.

The text below walks through data of patent publication US7223759B2, “Antibacterial 3,5-diaminopiperidine-substituted aromatic and heteroaromatic compounds” (Anadys Pharmaceuticals, Inc., priority 2003, dated 2007).

One assay concerns Escherichia coli (ATCC25922) or Staphylococcus aureus (ATCC25923). Briefly: Antibacterial MIC, microdilution method in Mueller-Hinton medium. To be noted: Escherichia coli, 18 h, MIC in E. coli or S. aureus; two-fold serial dilutions 64 to 0.5 μg/ml in duplicate; 18 hours of incubation at 35° C.; read-out: Potency (MIC). The class given is cell-based. As to the method:
The antibacterial activity of the Formula I compounds was evaluated against standard bacterial strains by determining the minimal inhibitory concentration (MIC) to block growth. Each drug was assayed by the microdilution method in Mueller-Hinton medium, as recommended by the National Committee for Clinical Laboratory Standards. Approved Standard M7-A5: Methods for Dilution Antimicrobial Susceptibility Tests for Bacteria That Grow Aerobically 5th Ed. (National Committee for Clinical Laboratory Standards, Wayne, Pa., 2000). The tested bacterial strains included Escherichia coli (American Type Collection ATCC25922), Staphylococcus aureus (ATCC25923), and Pseudomonas aeruginosa (ATCC27853). Two-fold serial dilutions of each compound ranging from 64 to 0.5 μg/ml were tested in duplicate. The MIC was determined as the lowest concentration of each compound that prevented bacterial growth after 18 hours of incubation at 35° C. […] The mass of each compound in the Table was confirmed by LC-MS.
A word on the MIC: it is the lowest concentration found to suppress growth. Consider `Cl.O=C(Nc1ccc(Nc2cc(N3CCCCC3)cc(N3CCCCC3)c2)cc1)c1ccc2ccccc2c1O` [1-Hydroxy-naphthalene-2-cxarboxylicacid {4-[3-((3R,5S)-3,5-diamino-piperidin-1-yl)-5-((3S,5R)-3,5-diamino-piperidin-1-yl)-phenylamino]-phenyl}-amide], for which the MIC is < 16 µg/mL.
As for `CC(=O)c1ccc(Nc2nc(N3CCCCC3)nc(N3CCCCC3)n2)cc1.Cl` [1-{4-[4-((3R,4S)-3-Aminomethyl-4-hydroxy-piperidin-1-yl)-6-((3R,5S)-3,5-diamino-piperidin-1-yl)-[1,3,5]triazin-2-ylammino]-phenyl}-ethanone], the MIC was > 64 µg/mL.
Take `CC(=O)c1ccc(Nc2nc(N3C[C@H](N)C[C@H](N)C3)nc(N3C[C@H](O)C[C@@H](O)C3)n2)cc1` [1-{4-[4-((3R,5S)-3,5-Diamino-piperidin-1-yl)-6-((3R,5R)-3,5-dihydroxy-piperidin-1-yl)-[1,3,5]triazin-2-ylamino]-phenyl}-ethanone]: the MIC was > 64 µg/mL.
As for `CC(=O)c1ccc(Nc2nc(N3C[C@H](N)C[C@H](N)C3)nc(N3C[C@@H](N)C[C@@H](O)C3)n2)cc1` [1-{4-[4-((3S,5R)-3-Amino-5-hydroxy-piperidin-1-yl)-6-((3R,5S)-3,5-diamino-piperidin-1-yl)-[1,3,5]triazin-2-ylamino]-phenyl}-ethanone], the minimal inhibitory concentration (MIC) was > 64 µg/mL.
Regarding `COC(=O)c1c(N2C[C@H](N)C[C@H](N)C2)nc2ccccc2c1N1C[C@H](N)C[C@H](N)C1.Cl` [2,4-Bis-((3R,5S)-3,5-diamino-piperidin-1-yl)-quinoline-3-carboxylic acidmethylester], the MIC is > 64 µg/mL.
On the same count and under the same terms, the result for `Cl.N[C@@H]1C[C@@H](N)CN(c2nc(N3CCC4CCCCC4C3)nc(N3C[C@H](N)C[C@H](N)C3)n2)C1` (stereo partly drawn) [2,4-Biss-((3R,5S)-3,5-diamino-piperidin-1-yl)-6-(4-p-tolyl-piperazin-1-yl)-[1,3,5]triazine] reads > 64 µg/mL.
Consider `COC(=O)c1ccccc1Nc1nc(N2C[C@H](N)C[C@H](N)C2)nc(N2C[C@H](N)C[C@H](N)C2)n1` [2-[4,6-Bis-((3R,5S)-3,5-diamino-piperidin-1-yl)-[1,3,5]triazin-2-ylamino]-benzoic acid methyl ester], for which the MIC is > 64 µg/mL.
As for `Cl.c1ccc(N2CCN(c3nc(N4CCCCC4)nc(N4CCCCC4)n3)CC2)nc1` [2-[4-(4-Fluoro-phenyl)-piperiazin-1-yl]-4,6-Bis-((3R,5S)-3,5-diamino-piperidin-1-yl)-[1,3,5]triazine], the MIC was > 64 µg/mL.
Consider `Cl.Oc1cccc(C2CCN(c3nc(N4CCCCC4)nc(N4CCCCC4)n3)CC2)c1` [3-[1-(4,6-Bis-((3R,5S)-3,5-diamino-piperidin-1-yl)-[1,3,5]triazin-2-yl)-piperidin-4-yl]-phenyl], for which the minimum inhibitory concentration (MIC) is > 64 µg/mL.

The same assay, now with this note: Escherichia coli, 18 h, read-out: Potency (MIC).
With `N[C@@H]1C[C@H](N)CN(c2ncnc(Nc3ccc(NC(=O)c4ccc5ccccc5c4O)cc3)n2)C1` [1-Hydroxy-naphthalene-2-carboxylicacid {4-[4-((3S,5R)-3,5-diamino-piperidin-1-yl)-[1,3,5]triazin-2-ylamino]-phenyl}-amide], the MIC was < 16 µg/mL.
Regarding `N[C@@H]1C[C@H](N)CN(c2nc3nc(Nc4ccc(NC(=O)c5ccc6ccccc6c5O)cc4)nc(N4C[C@H](N)C[C@H](N)C4)c3[nH]2)C1` [1-Hydroxy-naphthalene-2-carboxylicacid {4-[6-((3R,5S)-3,5-diamino-piperidin-1-yl)-8-((3S,5R)-3,5-diamino-piperidin-1-yl)-7H-purin-2-ylamino]-phenyl}-amide], the minimal inhibitory concentration (MIC) was < 16 µg/mL.
On the same count and under the same terms, the result for `CC(=O)c1ccc(Nc2nc(N3C[C@H](N)C[C@H](N)C3)nc(N3CC[C@H](O)[C@@H]3CN)n2)cc1` [1-{4-[4-((2S,3S)-2-Aminomethyl-3-hydroxy-pyrrolidin-1-yl)-6-((3R,5S)-3,5-diamino-piperidin-1-yl)-[1,3,5]triazin-2-ylamino]-phenyl}-ethanone] reads > 64 µg/mL; that for `CC(=O)c1ccc(Nc2nc(N3C[C@H](N)C[C@H](N)C3)nc(N3C[C@H](O)C[C@H]3CN)n2)cc1` [1-{4-[4-((2S,4R)-2-Aminomethyl-4-hydroxy-pyrrolidin-1-yl)-6-((3R,5S)-3,5-diamino-piperidin-1-yl)-[1,3,5]triazin-2-ylamino]-phenyl}-ethanone], > 64 µg/mL; that for `CC(=O)c1ccc(Nc2nc(N3C[C@H](N)C[C@H](N)C3)nc(N3C[C@@H](N)C[C@H]3CN)n2)cc1` [1-{4-[4-((2S,4S)-4-Amino-2-aminomethyl-pyrrolidin-1-yl)-6-((3R,5S)-3,5-diamino-piperidin-1-yl)-[1,3,5]triazin-2-ylamino]-phenyl}-ethanone], > 64 µg/mL.
As for `CC(=O)c1ccc(Nc2nc(N3C[C@H](N)C[C@H](N)C3)nc(N3C[C@@H](N)C[C@H]3CO)n2)cc1` [1-{4-[4-((2S,4S)-4-Amino-2-hydroxymethyl-pyrrolidin-1-yl)-6-((3R,5S)-3,5-diamino-piperidin-1-yl)-[1,3,5]triazin-2-ylamino]-phenyl}-ethanone], the MIC was > 64 µg/mL.
As to `CC(=O)c1ccc(Nc2nc(N3C[C@H](N)C[C@H](N)C3)nc(N3C[C@@H](N)[C@@H](N)C3)n2)cc1` [1-{4-[4-((3R,5S)-3,5-Diamino-piperidin-1-yl)-6-((3R,4S)-3,4-diamino-pyrrolidin-1-yl)-[1,3,5]triazin-2-ylamino]-phenyl}-ethanone], the MIC was > 64 µg/mL.
With `CC(=O)c1ccc(Nc2nc(N3C[C@H](N)C[C@H](N)C3)nc(N3C[C@@H](O)[C@@H](O)C3)n2)cc1` [1-{4-[4-((3R,5S)-3,5-Diamino-piperidin-1-yl)-6-((3R,4S)-3,4-dihydroxy-pyrrolidin-1-yl)-[1,3,5]triazin-2-ylamino]-phenyl}-ethanone], the minimum inhibitory concentration (MIC) is > 64 µg/mL.
Consider `CC(=O)c1ccc(Nc2nc(N3C[C@H](N)C[C@H](N)C3)nc(N3CCC[C@@H](O)C3)n2)cc1` [1-{4-[4-((3R,5S)-3,5-Diamino-piperidin-1-yl)-6-((R)-3-hydroxy-piperidin-1-yl)-[1,3,5]triazin-2-ylamino]-phenyl}-ethanone], for which the MIC was > 64 µg/mL.
Consider `COc1nc(Nc2ccc(C(C)=O)cc2)nc(N2C[C@H](N)C[C@H](N)C2)n1` [1-{4-[4-((3R,5S)-3,5-Diamino-piperidin-1-yl)-6-methoxy-[1,3,5]triazin-2-ylamino]-phenyl}-ethanone], for which the MIC was > 64 µg/mL.
Still for that read-out and setting: then `CC(=O)c1ccc(Nc2nc(N(CCN)CCN)nc(N3C[C@H](N)C[C@H](N)C3)n2)cc1` [1-{4-[4-[Bis-(2-amino-ethyl)-amino]-6-((3R,5S)-3,5-diamino-piperidin-1-yl)-[1,3,5]triazin-2-ylamino]-phenyl}-ethanone], with < 64 µg/mL; and `N[C@@H]1C[C@H](N)CN(c2nc(NNC(=O)c3ccccc3O)nc(N3C[C@H](N)C[C@H](N)C3)n2)C1` [2-Hydroxy-benzoicacid N′-[4-((3R,5S)-3,5-diamino-piperidin-1-yl)-6-((3S,5R)-3,5-diamino-piperidin-1-yl)-[1,3,5]triazin-2-yl]-hydrazide], with < 64 µg/mL; and `NC[C@@H]1C[C@@H](O)CN1c1nc(Nc2ccc3c(c2)C(=O)c2ccccc2-3)nc(N2C[C@H](N)C[C@H](N)C2)n1` [2-[4-((2S,4R)-2-Aminomethyl-4-hydroxy-pyrrolidin-1-yl)-6-((3R,5S)-3,5-diamino-piperidin-1-yl)-[1,3,5]triazin-2-ylamino]-fluoren-9-one], with > 64 µg/mL.
Turning to `NC[C@@H]1C[C@H](N)CN1c1nc(Nc2ccc3c(c2)C(=O)c2ccccc2-3)nc(N2C[C@H](N)C[C@H](N)C2)n1` [2-[4-((2S,4S)-4-Amino-2-aminomethyl-pyrrolidin-1-yl)-6-((3R,5S)-3,5-diamino-piperidin-1-yl)-[1,3,5]triazin-2-ylamino]-fluoren-9-one], the MIC is > 64 µg/mL.
`COc1nc(Nc2ccc3c(c2)C(=O)c2ccccc2-3)nc(N2C[C@H](N)C[C@H](N)C2)n1` [2-[4-((3R,5S)-3,5-Diamino-piperidin-1-yl)-6-methoxy-[1,3,5]triazin-2-ylamino]-fluoren-9-one]: the MIC is > 64 µg/mL.
Take `NCCNc1nc(Nc2ccc3c(c2)-c2ccccc2C3=O)nc(N2C[C@H](N)C[C@H](N)C2)n1` [3-[4-(2-Amino-ethylamino)-6-((3R,5S)-3,5-diamino-piperidin-1-yl)-[1,3,5]triazin-2-ylamino]-fluoren-9-one]: the minimal inhibitory concentration (MIC) was > 64 µg/mL.
As to `NC[C@@H]1CN(c2nc(Nc3ccc4c(c3)-c3ccccc3C4=O)nc(N3C[C@H](N)C[C@H](N)C3)n2)CC[C@@H]1O` [3-[4-((3R,4S)-3-Aminomethyl-4-hydroxy-piperidin-1-yl)-6-((3R,5S)-3,5-diamino-piperidin-1-yl)-[1,3,5]triazin-2-ylamino]-fluoren-9-one], the minimal inhibitory concentration (MIC) was > 64 µg/mL.
`NC[C@@H]1C[C@H](CN)CN(c2nc(Nc3ccc4c(c3)-c3ccccc3C4=O)nc(N3C[C@H](N)C[C@H](N)C3)n2)C1` [3-[4-((3R,5S)-3,5-Bis-(aminomethyl)-piperidin-1-yl)-6-((3R,5S)-3,5-diamino-piperidin-1-yl)-[1,3,5]triazin-2-ylamino]-fluoren-9-one]: the minimum inhibitory concentration (MIC) is < 64 µg/mL.

The assay is the same for the next values; noted with them: MIC in E. coli or S. aureus; two-fold serial dilutions 64 to 0.5 μg/ml in duplicate; 18 hours of incubation at 35° C.
For `CC(=O)c1ccc(Nc2nc(N3C[C@H](N)C[C@H](N)C3)nc(N3C[C@H](CN)C[C@H](CN)C3)n2)cc1` [1-{4-[4-((3S,5R)-3,5-Bis-(aminomethyl)-piperidin-1-tl)-6-((3R,5S)-3,5-diamino-piperidin-1-l)-[1,3,5]triazin-2-ylamino]-phenyl}-ethanone], the “Potency (MIC)” value is “− (− means MIC>64 μg/ml in E. coli or S. aureus)”.
